# Source: publication PMC11843658 (Journal of Enzyme Inhibition and Medicinal Chemistry, 2025)
# Legend:
# [1] = tested on: E-cadherin, N-cadherin, and Vimentin in HepG2 cells; assay: Western blotting of epithelial–mesenchymal transition-related proteins; type: cell-based, Human
# Protocol: (§1) Compound 14 at different concentrations (0, 0.5, 1, and 2 μM) was added into cancer cells solution and incubated for 48 h. Total protein was isolated from cells using RIPA buffer (Servicebio, Wuhan, China). An amount of […] of total protein were separated by sodium dodecyl sulphate polycrylamide gel electrophoresis and transferred to PVDF membranes. 5% non-fat milk (Servicebio, Wuhan, China) was used to block PVDF membranes and incubated with primary antibody for 12 h at 4 °C. Then, PVDF membranes were washed by TBST buffer (Servicebio, Wuhan, China) and incubated with secondary antibody at room temperature for 2 h. The enhanced chemiluminescence kit (Servicebio, Wuhan, China) was used to visualise immunoreactive bands. H3, GAPDH, Vimentin, N-cadherin, and E-cadherin as antibodies were purchased from Servicebio (Wuhan, China). Catalogue numbers of H3, GAPDH, Vimentin, N-cadherin, and E-cadherin as antibodies in Servicebio are GB11102, GB15004, GB11192, GB12135, and GB12868, respectively. H3K4me1 and H3K4me2 were obtained from Proteintech Group, Inc (Wuhan, China). Catalogue numbers of H3K4me1 and H3K4me2 as antibodies in Proteintech Group are 91289 and 39679, respectively.
# MCF7 cells = assay: CCK8 assay, MCF7 breast cancer cells; type: cell-based; settings: Homo sapiens, 10 μM, 48 h, read-out: cell viability rate
# Protocol: (§2) C42B, PC3, Caco-2, HepG2, MCF7, HL-60, 8505 C, OVCAR-3, and A549 were cultured to screen the broad-spectrum antiproliferative activity of compound 14. For above cell lines, three thousand cells per well were seeded in the 96-well plate and treated by compound 14 for 48 or 72 h at different concentrations (0, 5, 10, and 20 μM). In addition, HepG2, HEP3B, HUH6, and HUH7 were cultured to screen its antiproliferative activity against liver cancer cell lines. For these liver cancer cell lines, two thousand cells per well were seeded in the 96-well plate and treated by compound 14 for 48 h at different concentrations (0, 0.625, 1.25, 2.5, and 5 μM). Then, 10 μl of CCK8 was added into each well and cells were incubated in a humidified atmosphere of 5% CO2 at 37 °C for 4 h. The 96-well plate was measured with a microplate reader (Bio-Tek, San Diego, CA) at a wavelength of 450 nm to calculate IC50 values.
# [2] = Toxicity in xenograft study: weight of mice, haematoxylin and eosin staining of organs; type: in vivo; settings: 60 mg/kg by gavage every day for 21 days, vs control group
# HUH7 cells = assay: CCK8 assay, HUH7 liver cancer cells; type: cell-based; settings: Homo sapiens, Huh-7, CCK8, 48 h, 0-5 μM, read-out: IC50, antiproliferative activity
# Protocol: as §2
# Caco-2 cells = assay: CCK8 assay, Caco-2 colon cancer cells; type: cell-based; settings: Homo sapiens, 10 μM, 48 h, read-out: cell viability rate
# Protocol: as §2
# H3K4me1/2 = assay: Western blotting of LSD1 substrates H3K4me1/2; type: cell-based; settings: Western blotting, 0, 0.5, 1, and 2 μM, 48 h
# Protocol: as §1
# HepG2 cells [3] = assay: CCK8 assay, HepG2 liver cancer cells; type: cell-based; settings: Homo sapiens
# Protocol: as §2
# OVCAR-3 cells = assay: CCK8 assay, OVCAR-3 ovarian cancer cells; type: cell-based; settings: Homo sapiens, 10 μM, 48 h, read-out: cell viability rate
# Protocol: as §2
# HepG2 cells [4] = assay: Wound healing and transwell assays; type: cell-based, Human; settings: 48 h, compared to control group
# Protocol: Cancer cells were seeded into a 6-well plate for 12 h and each well was scratched using a sterile micropipette tip. Cellular debris was removed by PBS solution (Servicebio, Wuhan, China), and compound 14 at different concentrations (0, 0.5 μM, 1 μM, and 2 μM) was added. The 6-well plate was incubated for 48 h and photographed on a microscope.
# Cancer cells were seeded into a Transwell 24-well plate (Corning, NY) and compound 14 was added. About 20% foetal bovine serum and 1% heat-inactivated foetal bovine serum were respectively added into the lower and upper chamber. The 24-well plate was incubated for 48 h at 37 °C, and it was washed by water. Cancer cells were fixed with cold ethanol for 20 min and stained with haematoxylin solution (Servicebio, Wuhan, China).
# PC3 cells = assay: CCK8 assay, PC3 prostate cancer cells; type: cell-based; settings: Homo sapiens, PC-3, 10 μM, 48 h, read-out: cell viability rate
# Protocol: as §2
# HL-60 cells = assay: CCK8 assay, HL-60 leukaemia cells; type: cell-based; settings: Homo sapiens, 10 μM, 48 h, read-out: cell viability rate
# Protocol: as §2
# C42B cells = assay: CCK8 assay, C42B prostate cancer cells; type: cell-based; settings: Homo sapiens, 10 μM, 48 h, read-out: cell viability rate
# Protocol: as §2
# 8505 C cells = assay: CCK8 assay, 8505 C thyroid cancer cells; type: cell-based; settings: Homo sapiens, 10 μM, 48 h, read-out: cell viability rate
# Protocol: as §2
# LSD1 = LSD1 (Homo sapiens, UniProt O60341); assay: LSD1 screening assay kit (enzymatic activity); type: biochemical; design: purchased Cayman Chemical (Ann Arbor, MI); settings: fluorescence, read-out: IC50 against LSD1
# Protocol: After the incubation for 30 min at 37 °C, a mixture of horseradish peroxidase solution (20 μl) and fluorometric substrate solution (10 μl) was added to each well. Then, the 96-well plate was incubated for 15 min at 37 °C. Finally, the fluorescence of each well in the 96-well plate was measured at an emission wavelength of 590 nm and an excitation wavelength of 530 nm by a fluorimeter (Agilent Technologies Inc., Palo Alto, CA). Seclidemstat, a famous LSD1 inhibitor, was used as the control drug in this assay.
# HEP3B cells = assay: CCK8 assay, HEP3B liver cancer cells; type: cell-based; settings: Homo sapiens, CCK8, 48 h, 0-5 μM, read-out: IC50, antiproliferative activity
# Protocol: as §2
# MAO-B = molecular target: T1, MAO-B (Homo sapiens, UniProt P27338); assay: Inhibitory activity against MAO-B (kynuramine); type: biochemical; settings: tested at 250, 500, and 1000 nM
# T1 construct: purchased Servicebio (Wuhan, China)
# Protocol: In order to analyse the enzymatic selectivity of compound 14, MAO-A/B was purchased from Servicebio (Wuhan, China). MAO-A was dissolved in phosphate buffer (0.1 M, pH = 7.4) to get MAO-A enzymatic buffer with a concentration of 0.006 mg/ml. MAO-B was also dissolved in phosphate buffer (0.1 M, pH = 7.3) to get MAO-B enzymatic buffer with a concentration of 0.015 mg/mL. Kynuramine dihydrochloride (Servicebio, Wuhan, China) was used to get the assay buffer with a concentration of 40 μM for MAO-A and 20 μM for MAO-B. An aliquot of 97 μl of assay buffer and 3 μl of compound 14 at different concentrations (250, 500, and 1000 nM) were added into each well on the 96-well black plate. The plate was incubated at 37 °C for 20 min, and 80 μl of 2 N sodium hydroxide was added into each well to stop the reaction. The fluorescence of each well was measured using a microplate reader (Agilent Technologies Inc., CA) with an excitation at 310 nm and an emission at 380 nm.
# T1 sequence (P27338 whole entry, species assumed): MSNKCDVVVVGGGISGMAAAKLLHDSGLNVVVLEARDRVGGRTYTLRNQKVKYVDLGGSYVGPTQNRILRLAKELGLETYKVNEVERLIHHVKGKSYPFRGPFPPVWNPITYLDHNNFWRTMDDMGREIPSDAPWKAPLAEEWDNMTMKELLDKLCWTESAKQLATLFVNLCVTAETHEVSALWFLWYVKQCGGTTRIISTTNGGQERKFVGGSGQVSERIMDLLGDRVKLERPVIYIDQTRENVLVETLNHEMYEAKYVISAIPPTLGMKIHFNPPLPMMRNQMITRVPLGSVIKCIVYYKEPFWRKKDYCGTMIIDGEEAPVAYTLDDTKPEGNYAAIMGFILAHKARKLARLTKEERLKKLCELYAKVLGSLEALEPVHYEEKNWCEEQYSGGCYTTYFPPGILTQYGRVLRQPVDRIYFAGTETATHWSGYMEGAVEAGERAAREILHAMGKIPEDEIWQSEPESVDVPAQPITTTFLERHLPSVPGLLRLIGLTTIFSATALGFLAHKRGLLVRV
structure (smiles),measurement,setting,value
"COc1ccc(CN(C(=O)CCN2C(=O)CCCC2=O)c2cc(OC)c(OC)c(OC)c2)cc1 [Compound 14, 3-(2,6-dioxopiperidin-1-yl)-N-(4-methoxybenzyl)-N-(3,4,5-trimethoxyphenyl)propanamide]",expression level of E-cadherin,[1],increases the expression level of E-cadherin
same,expression levels of N-cadherin and Vimentin,[1],decreases the expression levels of N-cadherin and Vimentin
same,viability at 10 µM,MCF7 cells,49.7%
same,body weight of nude mice,[2],did not show significant changes in body weight
same,"haematoxylin and eosin staining of liver, spleen, lung, and kidney",[2],no morphological differences
same,IC50,HUH7 cells,4.37 µM
same,viability at 10 µM,Caco-2 cells,72.3%
same,methylation levels of H3K4me1 and H3K4me2,H3K4me1/2,increase the methylation levels of H3K4me1 and H3K4me2
same,viability at 10 µM,"HepG2 cells [3]; 10 μM, 48 h, read-out: cell viability rate",14.2%
same,IC50,"HepG2 cells [3]; CCK8, 48 h, 0-5 μM, read-out: IC50, antiproliferative activity",0.93 µM
same,viability at 10 µM,OVCAR-3 cells,80.7%
same,migration of HepG2 cells,HepG2 cells [4],significantly suppresses the migration of HepG2 cells
same,viability at 10 µM,PC3 cells,52%
same,viability at 10 µM,HL-60 cells,35.7%
same,viability at 10 µM,C42B cells,88%
same,viability at 10 µM,8505 C cells,49.7%
same,IC50,LSD1,0.18 µM
same,IC50,HEP3B cells,2.09 µM
same,IC50,MAO-B,> 1 µM
